The results in this text go back to PubChem BioAssay AID190 (DTP/NCI, 2004).

The test system of this experiment is AKR/Lw mice, AKR lymphoma ip, median survival T/C. Put plainly: NCI In Vivo Anticancer Drug Screen. Data for tumor model Lymphoma AKR (Transplanted) (intraperitoneal) in AKR/Lw mice. Particulars: endpoint: median survival time, higher = longer survival. How it is done: The antitumor activity of compounds was measured in mice bearing transplantable tumors. Survival or tumor size were measured and the results are expressed as the measurement made in the treated group (T) divided by the measurement made in the vehicle treated control group (C). The tumor model used in this assay is Lymphoma AKR (Transplanted) (intraperitoneal) in AKR/Lw mice

[1] abbreviates: dose: 100.0 mg/kg/injection, schedule: Q01DX001 (ip), vehicle: Klucel (hydroxypropylcellulose) (HPC).
Setting [2] is: dose: 200.0 mg/kg/injection, schedule: Q01DX001 (ip), vehicle: Klucel (hydroxypropylcellulose) (HPC).
The mark [3] stands for this setting: dose: 400.0 mg/kg/injection, schedule: Q01DX001 (ip), vehicle: Klucel (hydroxypropylcellulose) (HPC).
[4] abbreviates: dose: 100.0 mg/kg/injection, schedule: Q01DX001 (ip), vehicle: saline.
Setting [5] is: dose: 200.0 mg/kg/injection, schedule: Q01DX001 (ip), vehicle: saline.
The mark [6] stands for this setting: dose: 400.0 mg/kg/injection, schedule: Q01DX001 (ip), vehicle: saline.
Where [7] appears, read: dose: 50.0 mg/kg/injection, schedule: Q01DX009 (ip), vehicle: Klucel (hydroxypropylcellulose) (HPC).

Molecules are shown by their SMILES. “And” between values parts separate entries of the source, which are not always exact repeats. Equal entries are not always repeated. Toxic doses and inconclusive results are not listed.

Turning to `CCCCCCCCCCCCCCCC(=O)OCC1OC(n2ccc(N)nc2=O)C(O)C1O` (configuration not stated), the T/C is, setting by setting: (dose: 0.07 mg/kg/injection, schedule: Q01DX015 (ip), vehicle: saline with Tween-80) 150 % of control; (dose: 0.15 mg/kg/injection, schedule: Q01DX015 (ip), vehicle: saline with Tween-80) 115 % of control; (dose: 0.31 mg/kg/injection, schedule: Q01DX010 (ip), vehicle: saline with Tween-80) 110 % of control; (dose: 0.62 mg/kg/injection, schedule: Q01DX010 (ip), vehicle: saline with Tween-80) 110 % of control; (dose: 0.62 mg/kg/injection, schedule: Q01DX015 (ip), vehicle: saline with Tween-80) 375 % of control; (dose: 1.25 mg/kg/injection, schedule: Q01DX015 (ip), vehicle: saline with Tween-80) 165 % of control. For the same compound, the T/C was 225 % of control (dose: 2.5 mg/kg/injection, schedule: Q01DX015 (ip), vehicle: saline with Tween-80); 111 % of control (dose: 3.12 mg/kg/injection, schedule: Q01DX001 (ip), vehicle: saline with Tween-80); 100 % of control and 116 % of control (dose: 3.75 mg/kg/injection, schedule: Q01DX005 (ip), vehicle: saline with Tween-80); 153 % of control (dose: 3.75 mg/kg/injection, schedule: Q01DX015 (ip), vehicle: saline with Tween-80); 166 % of control and 218 % of control (dose: 5.0 mg/kg/injection, schedule: Q01DX010 (ip), vehicle: saline with Tween-80); 212 % of control (dose: 5.0 mg/kg/injection, schedule: Q01DX015 (ip), vehicle: saline with Tween-80). The T/C by setting is: (dose: 6.25 mg/kg/injection, schedule: Q01DX001 (ip), vehicle: saline with Tween-80) 102 % of control; (dose: 6.25 mg/kg/injection, schedule: Q14DX003 (ip), vehicle: saline with Tween-80) 112 % of control; (dose: 7.5 mg/kg/injection, schedule: Q01DX015 (ip), vehicle: saline with Tween-80) 200 % of control; (dose: 10.0 mg/kg/injection, schedule: Q01DX010 (ip), vehicle: saline with Tween-80) 180 % of control and 261 % of control; (dose: 10.0 mg/kg/injection, schedule: Q01DX015 (ip), vehicle: saline with Tween-80) 375 % of control; (dose: 12.5 mg/kg/injection, schedule: Q01DX001 (ip), vehicle: saline with Tween-80) 108 % of control. The T/C (dose: 12.5 mg/kg/injection, schedule: Q09DX002 (ip), vehicle: saline with Tween-80) is 113 % of control; the T/C (dose: 12.5 mg/kg/injection, schedule: Q14DX003 (ip), vehicle: saline with Tween-80) was 155 % of control; the T/C (dose: 12.5 mg/kg/injection, schedule: Q14DX004 (ip), vehicle: saline with Tween-80) was 122 % of control; the T/C (dose: 15.0 mg/kg/injection, schedule: Q01DX015 (ip), vehicle: saline with Tween-80) is 250 % of control; the T/C (dose: 18.8 mg/kg/injection, schedule: Q01DX001 (ip), vehicle: saline with Tween-80) is 121 % of control; the T/C (dose: 25.0 mg/kg/injection, schedule: Q09DX002 (ip), vehicle: saline with Tween-80) was 121 % of control. For the same compound, the T/C is 203 % of control (dose: 25.0 mg/kg/injection, schedule: Q14DX003 (ip), vehicle: saline with Tween-80); 70 % of control (dose: 30.0 mg/kg/injection, schedule: Q01DX015 (ip), vehicle: saline with Tween-80); 61 % of control and 110 % of control (dose: 45.0 mg/kg/injection, schedule: Q01DX005 (ip), vehicle: saline with Tween-80); 172 % of control (dose: 50.0 mg/kg/injection, schedule: Q09DX002 (ip), vehicle: saline with Tween-80); 183 % of control and 343 % of control (dose: 50.0 mg/kg/injection, schedule: Q14DX003 (ip), vehicle: saline with Tween-80); 381 % of control (dose: 100.0 mg/kg/injection, schedule: Q14DX003 (ip), vehicle: saline with Tween-80). Moreover, the T/C is, setting by setting: (dose: 100.0 mg/kg/injection, schedule: Q14DX004 (ip), vehicle: saline with Tween-80) 182 % of control; (dose: 150.0 mg/kg/injection, schedule: Q14DX003 (ip), vehicle: saline with Tween-80) 375 % of control.

As to `NC(CSC(c1ccccc1)(c1ccccc1)c1ccc(CO)cc1)C(=O)O` (configuration not stated), the T/C is 100 % of control under setting [1], 94 % of control under setting [2] and 110 % of control under setting [3].

Regarding `COc1cc2ccc(C(C)N)cc2cc1OC` (configuration not stated), the T/C (dose: 50.0 mg/kg/injection, schedule: Q04DX003 (ip), vehicle: saline) was 105 % of control; the T/C under setting [4] was 98 % of control; the T/C (dose: 100.0 mg/kg/injection, schedule: Q04DX003 (ip), vehicle: saline) was 102 % of control; the T/C under setting [5] was 100 % of control; the T/C (dose: 200.0 mg/kg/injection, schedule: Q04DX003 (ip), vehicle: saline) is 95 % of control.

With `CCOC(=O)C(O)C(C#N)c1ccccc1` (configuration not stated), the T/C is 103 % of control (dose: 100.0 mg/kg/injection, schedule: Q01DX001 (ip), vehicle: other); 103 % of control (dose: 200.0 mg/kg/injection, schedule: Q01DX001 (ip), vehicle: other); 100 % of control (dose: 400.0 mg/kg/injection, schedule: Q01DX001 (ip), vehicle: other).

For the compound `CC(C)c1ccc(C(c2c(O)c3ccccc3oc2=O)c2c(O)c3ccccc3oc2=O)cc1`, the T/C under setting [1] was 113 % of control, the T/C under setting [2] is 106 % of control and the T/C under setting [3] is 90 % of control.

Regarding `COC(=O)C1(C)CCC(c2ccc(C)cc2)=C(CC(=O)O)C1` (configuration not stated), the T/C is, setting by setting: under setting [4], 97 % of control; under setting [5], 94 % of control; under setting [6], 94 % of control.

`O=C(/C=C/C(=O)Oc1ccc(Cl)cc1)Oc1ccc(Cl)cc1`: the T/C is 92 % of control under setting [1], 89 % of control under setting [2] and 107 % of control under setting [3].

As to `O=C1CSC(=S)N1c1ccco1`, the T/C runs as follows: (dose: 25.0 mg/kg/injection, schedule: Q04DX003 (ip), vehicle: Klucel (hydroxypropylcellulose) (HPC)) 109 % of control; under setting [7], 97 % of control; (dose: 50.0 mg/kg/injection, schedule: Q04DX003 (ip), vehicle: Klucel (hydroxypropylcellulose) (HPC)) 92 % of control; under setting [1], 103 % of control; (dose: 100.0 mg/kg/injection, schedule: Q01DX009 (ip), vehicle: Klucel (hydroxypropylcellulose) (HPC)) 95 % of control; (dose: 100.0 mg/kg/injection, schedule: Q04DX003 (ip), vehicle: Klucel (hydroxypropylcellulose) (HPC)) 90 % of control. The T/C under setting [2] was 96 % of control; the T/C (dose: 200.0 mg/kg/injection, schedule: Q01DX009 (ip), vehicle: Klucel (hydroxypropylcellulose) (HPC)) was 102 % of control; the T/C (dose: 200.0 mg/kg/injection, schedule: Q04DX003 (ip), vehicle: Klucel (hydroxypropylcellulose) (HPC)) was 88 % of control.

As for `c1ccc(CC(Cc2ccccc2)=[N+]2CCCC2)cc1`, the T/C under setting [4] was 97 % of control, the T/C under setting [5] was 88 % of control and the T/C under setting [6] was 88 % of control.

On to `CC1(C)CC[N+]1(C)Cc1ccccc1` (configuration not stated), for which the T/C runs as follows: (dose: 6.25 mg/kg/injection, schedule: Q01DX001 (ip), vehicle: saline) 97 % of control; (dose: 12.5 mg/kg/injection, schedule: Q01DX001 (ip), vehicle: saline) 100 % of control; (dose: 25.0 mg/kg/injection, schedule: Q01DX001 (ip), vehicle: saline) 100 % of control.

For the compound `O=C(O)/C=C/C(=O)Nc1cccc(Oc2ccc([N+](=O)[O-])cc2[N+](=O)[O-])c1`, the T/C is, setting by setting: under setting [4], 91 % of control; under setting [5], 103 % of control.

In the case of `O=C(O)c1ccc(SSc2ccc(C(=O)O)cn2)nc1`, the T/C was 100 % of control (dose: 12.5 mg/kg/injection, schedule: Q01DX009 (ip), vehicle: Klucel (hydroxypropylcellulose) (HPC)); 92 % of control (dose: 25.0 mg/kg/injection, schedule: Q01DX009 (ip), vehicle: Klucel (hydroxypropylcellulose) (HPC)); 102 % of control under setting [7]; 95 % of control and 102 % of control under setting [1]; 90 % of control and 92 % of control under setting [2]; 95 % of control and 97 % of control under setting [3].

Take `c1ccc2c(c1)CNCc1ccccc1-2`: the T/C under setting [4] was 97 % of control.

For `COc1ccc(/C=C2/CSC/C(=C/c3ccc(OC)c(OC)c3)C2=O)cc1OC`, the T/C under setting [4] was 96 % of control, the T/C under setting [5] is 88 % of control and the T/C under setting [6] was 90 % of control.

For the compound `CCCCCCCC(=O)NCCCC`, the T/C runs as follows: under setting [1], 96 % of control; under setting [2], 96 % of control; under setting [3], 92 % of control.

In the case of `S=C1NC(c2ccccc2)NC(c2ccccc2)S1` (configuration not stated), the T/C was 92 % of control under setting [1], 92 % of control under setting [2] and 96 % of control under setting [3].

`OCC1=C(CO)C2(Cl)C(Cl)=C(Cl)C1(Cl)C2(Cl)Cl`: the T/C under setting [2] is 95 % of control and the T/C under setting [3] is 91 % of control.
